According to patent US6512102B1, “Compositions and methods of diagnosis and treatment using casein kinase I” (Chiron Corporation, priority 1998, dated 2003):

Test system: Lef-1 dependent transcription
Test: Lef-1 enhancer luciferase reporter assay in Cos cells
Format: cell-based
Conditions: GSK3 over-expressed / cotransfected
Description: Combinations of Wnt-1, CKIε, CKI kinase dead variant (lys→arg 38) and Lef-1 were transfected into Cos cells with a luciferase gene driven by multiple copies of Lef enhancer elements. As an internal control of transfection efficiency, the β-galactosidase gene driven by the SV40 promoter was co-transfected in all samples. 24 hours after transfection, cells were lysed and the lysate was tested for luciferase activity. The luciferase activity was normalized with respect to β-galactosidase activity. […] Dorsoanterior index (DAI) grade numbers were assigned to the phenotypes of the embryos. A grade 5 embryo is normal; a grade 3 embryo is cyclopic (one eye); a grade 1 embryo has a tail fin and somites but no head (acephalic); and a grade 0 embryo has no dorsoanterior structures (Kao et al., 1988).
The effect of CKI on Lef-1 dependent transcription in Cos mammalian cells was examined. A luciferase reporter gene driven by multiple copies of the Lef-I enhancer sequence was used. When only Wnt-I or lef-I or CKIε was transfected with the reporter construct, luciferase activity was induced only 2 to 3 fold (FIG. 1A). When Lef-1 was cotransfected with either Wnt-1 or CKIε, luciferase activity was induced 30 or 12 fold respectively.
Luciferase reporter plasmid contains multiple Lef-I enhancer sites upstream of the fos basal promoter. […]

## GSK3: GSK3 over-expressed from cotransfected plasmid [reference compound]
  luciferase activity transduced by CKIε: inhibited the effect of CKI in promoting transcription
